Results on seven molecules are retold here after patent publication US20260167622A1, “PAN-KRAS DEGRADING AGENT, AND PREPARATION METHOD THEREFOR AND USE THEREOF” (LEADINGTAC PHARMACEUTICAL (SHAOXING) CO., LTD., priority 2022, published 2026).

Holding throughout (format): cell-based
Test [1] has as its system KRAS G13D mutant human colorectal cancer epithelial cell DLD-1. Nature of the test: 3D cell proliferation inhibition assay, DLD-1. The settings on record: DLD-1, 168 h, 3D culture, 7 days, CTG. The source says:
(§1) Test Example 6: 3D Cell Proliferation Inhibition Assay
(§2) The inhibitory effects of the compounds on 3D cell proliferation were investigated on KRAS G12C mutant human non-small cell lung cancer cell NCI-H358, KRAS G12D mutant human lung cancer cell A427, KRAS G12D mutant human gastric cancer cell AGS, KRAS G12D mutant human metastatic pancreatic cancer cell AsPc-1, KRAS G12V mutant human lung squamous carcinoma cell SW900, KRAS G12V mutant human colorectal cancer cell SW620, KRAS G13D mutant human colorectal cancer epithelial cell DLD-1, and KRAS WT human gastric cancer cell MKN1. The specific procedures were as follows:
(§3) 10 μL of each compound solution diluted in a gradient was added to corresponding wells of a 96-well low-adsorption microplate (PerkinElmer), so that the final concentrations of the test compounds in the reaction system were in a range of 10000-0.026 nM. The final concentration of DMSO was 0.2%. Then 90 µL of cells were correspondingly seeded into each well to achieve a cell density of 5×10^2 cells/well (the cell density of SW900 was 5×10^3 cells/well, and the cell density of MKN1 was 1×10^3 cells/well). In addition to test wells for the test compounds, both a DMSO control well and a medium control well were set, with the DMSO control well containing DMSO and cells and the medium well containing only a medium. After the sample loading, the 96-well low-adsorption microplate was incubated in an incubator at 37° C. with […] for 7 days. After 7 days, the microplate was taken out, and 100 μL of CTG reagent (Promega) was added to each well. The plate was incubated at room temperature for 60 m and read on a microplate reader EnVision by the chemiluminescence program. The inhibition rates of the compounds at each concentration were calculated using the formula for the percentage inhibition of cell proliferation: inhibition rate 00=(mean value of DMSO control group−single concentration reading value of compound)/(mean value of DMSO control group−mean value of medium control group)×100. Then non-linear curve fillings for logarithmic concentration-inhibition rate were performed by GraphPad Prism 8, and the IC50 values of the compounds were obtained (Table 6).

The subject of test [2] is KRAS G12V mutant human colorectal cancer cell SW620. The test is described as follows: 3D cell proliferation inhibition assay, SW620. The note with it: SW-620, 168 h, 3D culture, 7 days, CTG.
Excerpt: as §1, §2, §3

The target in test [3] is T1, KRAS G12V protein in SW620 cells (Homo sapiens, UniProt P01116, G12V).
T1 construct: endogenous in cells; host or cells: SW620
Nature of the test: KRAS degradation assay (Western Blot) in SW620 cells. The note with it: for DC50: 24 h; for Dmax: SW-620, 24 h. The source says: (§4) Test Example 5: KRAS G12C, KRAS G12D, KRAS G12V, KRAS G13D, and KRAS WT (Expanded) Degradation Assays
(§5) The degradation effect of the compounds on KRAS was investigated on KRAS G12C mutant human non-small cell lung cancer cell NCI-H358, KRAS G12D mutant human metastatic pancreatic cancer cell AsPc-1, KRAS G12D mutant human lung cancer cell A427, KRAS G12V mutant human colorectal cancer cell SW620, KRAS G12V mutant human lung cancer cell SW900, KRAS G13D mutant human colorectal cancer epithelial cell DLD-1, and KRAS WT human gastric cancer cell MKN-1. The specific procedures were as follows: 0.95 mL of cells were seeded into each well of a 24-well cell culture plate to achieve a cell density of 5×10^5 cells/well; and the cell plate was incubated in an incubator at 37° C. with 5% CO2 overnight. Then 50 μL of the compound solution after dilution was added to each of the wells with the corresponding cells, so that the final concentration of the compound was in a range of 0.03-3000 nM. The final concentration of DMSO was 0.25%. After the compounds were added, the cell plate was incubated in an incubator at 37° C. with 5% CO2 for 24 h. The culture medium in the 24-well cell culture plate was then removed, and the plate was washed twice with 1×PBS (KeyGEN). 120 μL of RIPA (strong) lysis buffer (Beyotime) (supplemented with 1 mM phenylmethylsulfonyl fluoride, a protease inhibitor mixture (Beyotime), and a protease phosphatase inhibitor mixture (Beyotime)) was added to lyse adherent SW900 cells at the bottom of the cell culture plate. After the plate was left to stand on ice for 30 min, the protein lysate in each well was transferred to a 1.5 mL centrifuge tube and centrifuged at 15000 g for 20 min at 4° C. The cell lysate supernatants after centrifugation were cryopreserved in a refrigerator at −80° C. for later use.
(§6) After the samples of the cell lysate supernatants that had been prepared were thawed from the refrigerator at −80° C., the total protein concentrations of the cell lysates were determined using a BCA protein quantification kit (Tiangen). The total protein concentrations of the samples were then adjusted to 0.5 μg/μL with PBS and 5×SDS-PAGE protein loading buffer (Beyotime), and the samples were incubated in a water bath at 100° C. for 15 min. The samples were then incubated in an ice bath for 5 min and centrifuged at 14000 g for 1 min at 4° C., and the supernatants were mixed well as loading samples for the Western Blot assay. The samples were loaded into wells of a 10% precast gel (KeyGEN) with a loading volume of 10 μL (total protein: 5 μg), a sufficient Tris-MOPS-SDS running buffer (Adamas) was added, and then electrophoresis was performed at a constant voltage of 120 V for 55 min. After the electrophoresis, the proteins on the gel were transferred to PVDF membranes at a constant current of 250 mA for 55 min. After the membrane transfer, the PVDF membranes were incubated in 1× Quick Block blocking buffer (Beyotime)at room temperature for 30 min. After the blocking, the PVDF membranes were separately incubated at 4° C. overnight with the KRAS antibody (Abcam) diluted in a ratio of 1:1000 and the β-actin antibody (Abcam) diluted in a ratio of 1:2000 in 5% BSA as the diluent, and then washed with 1×TBST buffer (2.4 g of Tris, 8.8 g of NaCl, 1.5 mL of Tween 20, with pH adjusted to 7.4, with the volume brought to 1 L) 3 times for 10 min/time. The membranes were incubated with a secondary antibody (Abcam) diluted in 5% BSA at room temperature for 2 h, and then washed with 1×TBST buffer 3 times for 10 min/time. Finally, the membranes were incubated with Clarity Western ECL Substrate (BIO-RAD) for 5 min for luminescence and color development, and a ChemiScope 6200 Touch chemiluminescence imaging system (Clinx) was used for color development and protein mapping. Gray value analysis of the protein maps was performed using the chemiluminescence analysis software (Clinx). […]

Test [4] relates to KRAS G12C mutant human non-small cell lung cancer cell NCI-H358. The test is described as follows: 3D cell proliferation inhibition assay, NCI-H358. The note with it: NCI-H358, 168 h, 3D culture, 7 days, CTG.
Excerpt: as §1, §2, §3

Test [5] concerns KRAS G12D mutant human metastatic pancreatic cancer cell AsPc-1. The test is described as follows: 3D cell proliferation inhibition assay, AsPc-1. The settings on record: ASPC1, 168 h, 3D culture, 7 days, CTG.
Excerpt: as §1, §2, §3

Test [6] deals with T2, KRAS G12V protein in SW900 cells (Homo sapiens, UniProt P01116, G12V).
T2 construct: endogenous in cells; host or cells: SW900
Nature of the test: KRAS degradation assay (Western Blot) in SW900 cells. The note with it: 24 h.
Excerpt: as §4, §5, §6

SMILES strings stand for the structures. Some results are limits rather than exact numbers.

T1 sequence (P01116 1-188 isoform P01116-2 G12V): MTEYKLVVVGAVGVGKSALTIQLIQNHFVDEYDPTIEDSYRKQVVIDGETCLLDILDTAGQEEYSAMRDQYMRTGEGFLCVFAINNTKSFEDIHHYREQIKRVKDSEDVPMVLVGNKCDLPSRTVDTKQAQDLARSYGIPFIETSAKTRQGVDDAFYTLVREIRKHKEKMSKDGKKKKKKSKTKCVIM
T2 sequence (P01116 1-188 isoform P01116-2 G12V): as above

For the molecule `C#Cc1c(F)ccc2cc(O)cc(-c3ncc4c(N5CCC[C@@](C)(O)C5)nc(OC[C@H](C)CN5CCN(CC6CCC7(CC6)CCN(C(=O)c6cc(N8CCC(=O)NC8=O)c(C)cc6F)CC7)CC5)nc4c3F)c12` [Example 162, 1-(5-(9-((4-((R)-3-((7-(8-ethynyl-7-fluoro-3-hydroxynaphthalen-1-yl)-8-fluoro-4-((R)-3-hydroxy-3-methylpiperidin-1-yl)pyrido[4,3-d]pyrimidin-2-yl)oxy)-2-methylpropyl)piperazin-1-yl)methyl)-3-azaspiro[5.5]undecane-3-carbonyl)-4-fluoro-2-methylphenyl)dihydropyrimidine-2,4(1H,3H)-dione], the IC50 in test [1] amounted to 12.8 nM; in test [2], 4.85 nM; in test [4], 3.83 nM; in test [5], 19.9 nM. The molecule also came in with a 50% degradation concentration (DC50) in test [3] of 21.7 nM. In test [3], the Dmax is 100%.

In test [6], `C#Cc1c(F)ccc2cc(O)cc(-c3ncc4c(N5CCC[C@@](C)(O)C5)nc(OCC5(CN6CCC(CN(C)CCC7CCN(C(=O)c8ccc(Cl)c(N9CCC(=O)NC9=O)c8)CC7)CC6)CC5)nc4c3F)c12` [Example 18, (R)-1-(2-chloro-5-(4-(2-(((1-((1-(((7-(8-ethynyl-7-fluoro-3-hydroxynaphthalen-1-yl)-8-fluoro-4-(3-hydroxy-3-methylpiperidin-1-yl)piperidino[4,3-d]pyrimidin-2-yl)oxy)methyl)cyclopropyl)methyl)piperidin-4-yl)methyl)(methyl)amino)ethyl)piperidine-1-carbonyl)phenyl)dihydropyrimidine-2,4(1H,3H)-dione] came in with a DC50 of 100 to 500 nM and a Dmax of 50 to 80%.

Regarding `C#Cc1c(F)ccc2cc(O)cc(-c3ccc4c(N5CCC[C@@](C)(O)C5)nc(OC[C@H](C)CN5CCN(CC6CCC7(CC6)CCN(C(=O)c6ccc(C)c(N8CCC(=O)NC8=O)c6)CC7)CC5)nc4c3F)c12` [Example 61, 1-(5-(9-((4-((R)-3-((7-(8-ethynyl-7-fluoro-3-hydroxynaphthalen-1-yl)-8-fluoro-4-((R)-3-hydroxy-3-methylpiperidin-1-yl)quinazolin-2-yl)oxy)-2-methylpropyl)piperazin-1-yl)methyl)-3-azaspiro[5.5]undecane-3-carbonyl)-2-methylphenyl)dihydropyrimidine-2,4(1H,3H)-dione], the IC50 was found to be 39.9 nM in test [1], 13.3 nM in test [2], 18.9 nM in test [4] and 68.2 nM in test [5]. In test [3], this molecule displayed a 50% degradation concentration (DC50) of 18.9 nM. Besides, the Dmax in test [3] was found to be 99.3%.

In test [6], `C#Cc1c(F)ccc2cc(O)cc(-c3ncc4c(NC5CC5)nc(OCC5(CN6CCN(CC7CCC8(CC7)CCN(C(=O)c7ccc(OC)c(N9CCC(=O)NC9=O)c7)CC8)CC6)CC5)nc4c3F)c12` [Example 31, 1-(5-(9-((4-((1-(((4-(cyclopropylamino)-7-(8-ethynyl-7-fluoro-3-hydroxynaphthalen-1-yl)-8-fluoropyrido[4,3-d]pyrimidin-2-yl)oxy)methyl)cyclopropyl)methyl)piperazin-1-yl)methyl)-3-azaspiro[5.5]undecane-3-carbonyl)-2-methoxyphenyl)dihydropyrimidine-2,4(1H,3H)-dione] gave a DC50 of 50 to 100 nM and a maximal degradation (Dmax) of 50 to 80%.

In test [6], `C#Cc1c(F)ccc2cc(O)cc(-c3ncc4c(NC(C)(C)C)nc(OCC5(CN6CCN(CC7CCC8(CC7)CCN(C(=O)c7ccc(OC)c(N9CCC(=O)NC9=O)c7)CC8)CC6)CC5)nc4c3F)c12` [Example 32, 1-(5-(9-((4-((1-(((4-(tert-butylamino)-7-(8-ethynyl-7-fluoro-3-hydroxynaphthalen-1-yl)-8-fluoropyrido[4,3-d]pyrimidin-2-yl)oxy)methyl)cyclopropyl)methyl)piperazin-1-yl)methyl)-3-azaspiro[5.5]undecane-3-carbonyl)-2-methoxyphenyl)dihydropyrimidine-2,4(1H,3H)-dione] gave a DC50 of no more than 50 nM and a maximal degradation (Dmax) of 50 to 80%.

Regarding `C#Cc1c(F)ccc2cc(O)cc(-c3ccc4c(N5CCC[C@@](C)(O)C5)nc(OC[C@H](C)CN5CCN(CC6CCC7(CC6)CCN(C(=O)c6ccc(OC)c(N8CCC(=O)NC8=O)c6)CC7)CC5)nc4c3F)c12` [Example 60, 1-(5-(9-((4-((R)-3-((7-(8-ethynyl-7-fluoro-3-hydroxynaphthalen-1-yl)-8-fluoro-4-((R)-3-hydroxy-3-methylpiperidin-1-yl)quinazolin-2-yl)oxy)-2-methylpropyl)piperazin-1-yl)methyl)-3-azaspiro[5.5]undecane-3-carbonyl)-2-methoxyphenyl)dihydropyrimidine-2,4(1H,3H)-dione], the IC50 turned out to be 57.5 nM in test [1], 15.4 nM in test [2], 24 nM in test [4] and 60.8 nM in test [5]. Moreover, in test [3], the DC50 was 4.25 nM. The same molecule had a Dmax in test [3] of 99.1%.

Consider `C#Cc1c(F)ccc2cc(O)cc(-c3ncc4c(N5CCCC(C)(N)C5)nc(OCC5(CN6CCN(CC7CCC8(CC7)CCN(C(=O)c7ccc(C)c(N9CCC(=O)NC9=O)c7)CC8)CC6)CC5)nc4c3F)c12` (stereo not shown) [Example 166, 1-(5-(9-((4-((1-(((4-(3-amino-3-methylpiperidin-1-yl)-7-(8-ethynyl-7-fluoro-3-hydroxynaphthalen-1-yl)-8-fluoropyrido[4,3-d]pyrimidin-2-yl)oxy)methyl)cyclopropyl)methyl)piperazin-1-yl)methyl)-3-azaspiro[5.5]undecane-3-carbonyl)-2-methylphenyl)dihydropyrimidine-2,4(1H,3H)-dione], for which half-maximal inhibition in test [5] (IC50) required 523 nM.
